For the assay, the system named is population of mites (Dermanyssus gallinae, Omithonyssus sylvianm). Nature of the assay: In vitro sensitivity of the mite population to mite treatments. The following applies: for Dose to obtain LD50 / Dose to obtain LD100: pd: prescribed dose; for Dose to obtain LD50: 50% of mites killed over 24 hours; for Dose to obtain LD100: 100% of mites killed in 24 hours; for LD 100 at the dose of the product notice: surroundings corresponding to the conditions of breeding. How it is done: Mites were also tested for during the course of this example. At day 0, the first diffusers of the avian appeasing pheromone were posed and the sampling of mites was effectuated. For the 12 samples that were taken, 5 samples permitted the identification of the species of mites in the breeding; 3 were utilized and placed in a mite culture and recuperated at the end of the internal experiment; and 4 served to test the sensitivity of parasites to the mites used.
On the 5 samples effectuated, […] samples of parasites were identified. 76% (n=86) were identified as Dermanyssus gallinae (chicken mites) and 24% (n=28) were Omithonyssus sylvianm (Northern Fowl mites).
Testing the sensitivity of the mites was next conducted. This test was performed in the population of mites with an in vitro system that verifies the sensitivity of the mite treatment utilized (Carbamate).
The parasites were thus exposed to a variety of concentrations of miticide. The dosage was determined by the value of the notice of dosage recommendation on the product.
Under experimental conditions 2 lots (T1 and T2) were subjected to the tests. The T1 lot corresponded to a universal test, which is not authorized in breeding since Ivermectine was used. Lot 2 corresponded to a test made with Amitraze.

`Cc1ccc(/N=C/N(C)/C=N/c2ccc(C)cc2C)c(C)c1` [Amitraze]: the “Dose to obtain LD50” value came out at 1 pd, the “Dose to obtain LD100” value turned out to be 1 pd and the “LD 100 at the dose of the product notice” value was “obtained with the doses prescribed”.
Consider Ivermectine, for which the “Dose to obtain LD50” value is recorded as 1 pd, the “Dose to obtain LD100” value is on record as 1 pd and the “LD 100 at the dose of the product notice” value is listed as “obtained with the doses prescribed”.

The values are drawn from patent US7723388B2, “Avian appeasing pheromones to decrease stress, anxiety and aggressiveness” (priority 2002, dated 2010).
